For one data set, the system named is Apis mellifera. Conditions: acute; duration: 48 hours; dermal; mortality.
Another data set relates to Canidae. Conditions: subchronic; duration: 90 days; oral; Dog Other; organ weight.
The next data set has as its system Coturnix coturnix. As to conditions: mortality; for LD50: acute, oral.
In another data set the test system is Daphnia magna. As to conditions: chronic/long-term, reproduction.
The subject of a further data set is Tagia sp. As to conditions: acute; duration: 14 days; mortality.
In a further data set the test system is Aphidius rhopalosiphi. In words: LR50; higher = less toxic. As to conditions: not reported; mortality.

Converted amounts (≈) assume the structure as drawn. Some results are limits rather than exact numbers.

Consider `COCCN(C(=O)CCl)c1c(C)cccc1C` [Dimethachlor], for which the LD50 is over 200 µg/piece in the data set on Apis mellifera; over 1470 mg/kg-day in the data set on Coturnix coturnix (diet); 524 mg/kg-day with Coturnix coturnix; 1600 mg/kg-day in the data set with Rattus norvegicus (acute, oral, mortality). The NOAEL was found to be 10 mg/kg-day in the data set with Canidae; 11.1 mg/kg-day in the data set on Rattus norvegicus (chronic, duration: 2 years, body weight); 50 mg/kg-day with Rattus norvegicus (developmental, development). Further, the NOEL with Coturnix coturnix (reproduction developmental, duration: 140 days) turned out to be 102 mg/kg-day; in the data set with Rattus norvegicus (chronic, mortality) it was 20 mg/kg-day. The NOEC with Daphnia magna (duration: 21 days) turned out to be 0.476 mg/L; in the data set on Daphnia magna (duration: 22 days), 2.3 mg/L; in the data set with Oncorhynchus mykiss (chronic/long-term, duration: 21 days, growth), 0.85 mg/L. Further, the LC50 was 3.9 µg/mL (≈ 15.2 µM) in the data set with Oncorhynchus mykiss (acute, duration: 96 hours, mortality) and over 70 mg/kg in the data set on Tagia sp.. The LR50 in the data set on Aphidius rhopalosiphi was determined as 91 g/ha.

Source of the values: EPA's ToxValDB 9.5 (doi:10.2903/j.efsa.2008.169r).
